What all share (assay): biochemical
Common to all, as to design: Invitrogen kinase panel: Z'Lyte activity (ATP at Km) or LanthaScreen competitive ATP-site binding, percent inhibition

Experiment [1] has as its target T1, CDK5/p25 (Homo sapiens, UniProt Q00535).
T1 construct: p25

For experiment [2], the target named is T2, MLK1 (Homo sapiens, UniProt P80192).
T2 construct: gene MAP3K9

Experiment [3] has as its target PAK1 (Homo sapiens, UniProt Q13153).
Experiment [4] concerns the target T3, PKC_beta1 (Homo sapiens, UniProt P05771).
T3 construct: gene PRKCB; isoform beta1

In experiment [5] the target is T4, PKD1 (Homo sapiens, UniProt Q15139).
T4 construct: gene PRKD1
T4 sequence (Q15139 1-912): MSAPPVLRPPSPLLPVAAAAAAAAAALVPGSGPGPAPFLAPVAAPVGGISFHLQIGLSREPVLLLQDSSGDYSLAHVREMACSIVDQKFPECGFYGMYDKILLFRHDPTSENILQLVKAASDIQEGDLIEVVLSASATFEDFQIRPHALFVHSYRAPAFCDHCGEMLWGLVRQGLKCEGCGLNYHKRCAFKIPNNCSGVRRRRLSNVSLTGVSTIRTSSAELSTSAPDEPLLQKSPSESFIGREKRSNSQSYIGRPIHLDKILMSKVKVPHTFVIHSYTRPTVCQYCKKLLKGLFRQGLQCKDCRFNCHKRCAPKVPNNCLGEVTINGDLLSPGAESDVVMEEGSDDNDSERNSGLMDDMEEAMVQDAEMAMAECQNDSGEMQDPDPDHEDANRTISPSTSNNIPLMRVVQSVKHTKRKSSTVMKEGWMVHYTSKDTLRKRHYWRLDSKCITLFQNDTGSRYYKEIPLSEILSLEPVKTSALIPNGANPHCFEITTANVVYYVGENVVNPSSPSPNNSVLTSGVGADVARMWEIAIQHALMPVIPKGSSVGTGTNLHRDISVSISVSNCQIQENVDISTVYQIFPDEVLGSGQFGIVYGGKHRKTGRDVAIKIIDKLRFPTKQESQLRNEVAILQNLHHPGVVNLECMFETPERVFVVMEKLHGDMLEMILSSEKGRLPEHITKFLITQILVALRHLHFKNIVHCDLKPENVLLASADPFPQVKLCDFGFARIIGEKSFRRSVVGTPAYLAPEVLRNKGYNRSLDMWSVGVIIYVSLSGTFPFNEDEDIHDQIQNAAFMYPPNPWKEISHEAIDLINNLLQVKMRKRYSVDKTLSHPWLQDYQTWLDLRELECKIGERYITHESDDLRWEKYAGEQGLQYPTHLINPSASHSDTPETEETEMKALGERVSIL

The target in experiment [6] is T5, PhK_gamma1 (Homo sapiens, UniProt Q16816).
T5 construct: gene PHKG1

In experiment [7] the target is T6, Tie2 (Homo sapiens, UniProt Q02763).
T6 construct: gene TEK

For experiment [8], the target named is T7, TrkA (Homo sapiens, UniProt P04629).
T7 construct: gene NTRK1

Experiment [9] deals with T8, Yes (Homo sapiens, UniProt P07947).
T8 construct: gene YES1

SMILES strings stand for the structures.

T6 sequence (Q02763 whole entry): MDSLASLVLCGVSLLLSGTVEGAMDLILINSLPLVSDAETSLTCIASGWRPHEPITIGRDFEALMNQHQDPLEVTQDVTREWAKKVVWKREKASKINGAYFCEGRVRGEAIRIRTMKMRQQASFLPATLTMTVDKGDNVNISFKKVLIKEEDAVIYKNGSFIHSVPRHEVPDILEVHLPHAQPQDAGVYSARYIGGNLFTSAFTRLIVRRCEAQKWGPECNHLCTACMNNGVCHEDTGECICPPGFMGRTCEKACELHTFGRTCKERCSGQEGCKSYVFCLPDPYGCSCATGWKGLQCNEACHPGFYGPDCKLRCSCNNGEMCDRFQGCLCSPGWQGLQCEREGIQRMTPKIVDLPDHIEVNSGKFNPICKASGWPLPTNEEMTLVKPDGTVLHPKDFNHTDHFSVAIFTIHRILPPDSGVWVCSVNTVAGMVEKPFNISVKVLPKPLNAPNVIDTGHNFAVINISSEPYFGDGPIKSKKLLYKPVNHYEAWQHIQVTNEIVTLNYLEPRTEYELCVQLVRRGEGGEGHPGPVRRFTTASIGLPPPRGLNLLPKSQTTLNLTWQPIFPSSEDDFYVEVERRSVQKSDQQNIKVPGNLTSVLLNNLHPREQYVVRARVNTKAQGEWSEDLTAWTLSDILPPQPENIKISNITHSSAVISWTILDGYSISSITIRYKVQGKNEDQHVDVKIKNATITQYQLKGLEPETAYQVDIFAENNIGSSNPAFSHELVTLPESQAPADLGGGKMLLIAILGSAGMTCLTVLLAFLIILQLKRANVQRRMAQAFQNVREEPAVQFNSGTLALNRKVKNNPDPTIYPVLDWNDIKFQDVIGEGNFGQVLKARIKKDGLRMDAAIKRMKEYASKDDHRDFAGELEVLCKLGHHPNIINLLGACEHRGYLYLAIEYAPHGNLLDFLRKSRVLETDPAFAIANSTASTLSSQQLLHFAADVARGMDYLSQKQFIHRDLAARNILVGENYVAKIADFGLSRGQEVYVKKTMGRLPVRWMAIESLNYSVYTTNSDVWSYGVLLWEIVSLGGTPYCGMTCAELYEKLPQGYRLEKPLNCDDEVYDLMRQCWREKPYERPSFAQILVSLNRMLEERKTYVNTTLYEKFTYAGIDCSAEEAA
T3 sequence (P05771 whole entry, canonical isoform): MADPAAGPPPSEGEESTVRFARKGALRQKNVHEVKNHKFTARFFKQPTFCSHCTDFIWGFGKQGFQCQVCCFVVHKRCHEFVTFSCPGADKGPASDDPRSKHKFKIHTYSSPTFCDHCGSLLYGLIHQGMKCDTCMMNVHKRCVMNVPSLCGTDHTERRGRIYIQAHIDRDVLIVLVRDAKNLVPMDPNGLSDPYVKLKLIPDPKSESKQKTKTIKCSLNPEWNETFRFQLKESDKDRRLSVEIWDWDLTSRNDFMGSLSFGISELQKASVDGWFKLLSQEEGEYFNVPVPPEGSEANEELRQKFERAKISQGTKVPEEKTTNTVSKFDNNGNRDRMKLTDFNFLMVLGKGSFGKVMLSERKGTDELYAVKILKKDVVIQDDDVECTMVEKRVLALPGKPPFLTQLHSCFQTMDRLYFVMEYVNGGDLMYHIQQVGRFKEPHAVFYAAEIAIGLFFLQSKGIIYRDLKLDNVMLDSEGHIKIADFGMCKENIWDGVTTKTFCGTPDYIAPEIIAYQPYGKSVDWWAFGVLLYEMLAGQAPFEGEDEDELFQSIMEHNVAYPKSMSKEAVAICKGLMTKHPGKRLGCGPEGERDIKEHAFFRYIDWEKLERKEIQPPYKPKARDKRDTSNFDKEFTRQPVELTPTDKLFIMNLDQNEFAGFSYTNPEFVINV
T2 sequence (P80192 whole entry): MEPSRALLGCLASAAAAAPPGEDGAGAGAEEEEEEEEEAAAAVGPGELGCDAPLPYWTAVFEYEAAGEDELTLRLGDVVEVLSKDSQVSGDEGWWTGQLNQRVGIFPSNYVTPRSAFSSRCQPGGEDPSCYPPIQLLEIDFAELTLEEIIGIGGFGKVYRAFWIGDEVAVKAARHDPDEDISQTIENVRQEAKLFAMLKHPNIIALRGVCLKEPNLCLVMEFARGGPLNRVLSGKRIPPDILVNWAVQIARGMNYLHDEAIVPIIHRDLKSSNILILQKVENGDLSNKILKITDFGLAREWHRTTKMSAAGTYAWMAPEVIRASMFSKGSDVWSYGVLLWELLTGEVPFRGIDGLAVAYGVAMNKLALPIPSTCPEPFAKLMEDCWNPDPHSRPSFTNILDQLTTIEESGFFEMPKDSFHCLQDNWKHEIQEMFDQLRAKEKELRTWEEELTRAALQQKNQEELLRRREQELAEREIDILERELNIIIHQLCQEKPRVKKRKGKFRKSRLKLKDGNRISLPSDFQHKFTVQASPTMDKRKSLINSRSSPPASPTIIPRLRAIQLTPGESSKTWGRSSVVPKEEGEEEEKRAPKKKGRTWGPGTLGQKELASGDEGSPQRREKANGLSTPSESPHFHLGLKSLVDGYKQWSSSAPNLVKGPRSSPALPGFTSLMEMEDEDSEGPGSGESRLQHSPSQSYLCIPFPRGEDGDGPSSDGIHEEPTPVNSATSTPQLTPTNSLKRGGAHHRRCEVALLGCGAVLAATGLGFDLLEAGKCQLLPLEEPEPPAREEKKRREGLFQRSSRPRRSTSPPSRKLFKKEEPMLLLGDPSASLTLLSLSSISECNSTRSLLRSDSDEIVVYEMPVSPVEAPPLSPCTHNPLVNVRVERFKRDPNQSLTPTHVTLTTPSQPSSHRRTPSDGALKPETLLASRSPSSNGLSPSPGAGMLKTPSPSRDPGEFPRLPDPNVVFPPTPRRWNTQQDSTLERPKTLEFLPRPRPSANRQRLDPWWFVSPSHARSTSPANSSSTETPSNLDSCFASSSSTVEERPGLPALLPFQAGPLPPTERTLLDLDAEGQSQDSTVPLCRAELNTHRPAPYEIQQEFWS
T1 sequence (Q00535 whole entry): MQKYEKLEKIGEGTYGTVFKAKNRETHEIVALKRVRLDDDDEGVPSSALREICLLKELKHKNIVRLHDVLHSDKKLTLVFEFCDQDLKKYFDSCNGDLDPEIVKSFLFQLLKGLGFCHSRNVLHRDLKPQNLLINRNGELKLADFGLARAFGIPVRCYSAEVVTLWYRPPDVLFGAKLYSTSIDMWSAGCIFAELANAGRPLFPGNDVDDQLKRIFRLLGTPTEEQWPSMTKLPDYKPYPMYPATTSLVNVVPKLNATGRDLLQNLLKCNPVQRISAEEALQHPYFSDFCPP
T1 sequence (Q15078 whole entry partner): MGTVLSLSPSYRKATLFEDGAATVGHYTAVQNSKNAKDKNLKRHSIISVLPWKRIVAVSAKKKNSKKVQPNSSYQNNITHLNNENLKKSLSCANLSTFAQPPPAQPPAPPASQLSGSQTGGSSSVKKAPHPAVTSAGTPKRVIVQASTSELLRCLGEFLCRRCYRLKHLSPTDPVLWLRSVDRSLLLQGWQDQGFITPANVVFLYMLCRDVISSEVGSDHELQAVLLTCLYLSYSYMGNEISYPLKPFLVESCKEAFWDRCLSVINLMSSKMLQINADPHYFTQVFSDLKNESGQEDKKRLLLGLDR
T7 sequence (P04629 whole entry): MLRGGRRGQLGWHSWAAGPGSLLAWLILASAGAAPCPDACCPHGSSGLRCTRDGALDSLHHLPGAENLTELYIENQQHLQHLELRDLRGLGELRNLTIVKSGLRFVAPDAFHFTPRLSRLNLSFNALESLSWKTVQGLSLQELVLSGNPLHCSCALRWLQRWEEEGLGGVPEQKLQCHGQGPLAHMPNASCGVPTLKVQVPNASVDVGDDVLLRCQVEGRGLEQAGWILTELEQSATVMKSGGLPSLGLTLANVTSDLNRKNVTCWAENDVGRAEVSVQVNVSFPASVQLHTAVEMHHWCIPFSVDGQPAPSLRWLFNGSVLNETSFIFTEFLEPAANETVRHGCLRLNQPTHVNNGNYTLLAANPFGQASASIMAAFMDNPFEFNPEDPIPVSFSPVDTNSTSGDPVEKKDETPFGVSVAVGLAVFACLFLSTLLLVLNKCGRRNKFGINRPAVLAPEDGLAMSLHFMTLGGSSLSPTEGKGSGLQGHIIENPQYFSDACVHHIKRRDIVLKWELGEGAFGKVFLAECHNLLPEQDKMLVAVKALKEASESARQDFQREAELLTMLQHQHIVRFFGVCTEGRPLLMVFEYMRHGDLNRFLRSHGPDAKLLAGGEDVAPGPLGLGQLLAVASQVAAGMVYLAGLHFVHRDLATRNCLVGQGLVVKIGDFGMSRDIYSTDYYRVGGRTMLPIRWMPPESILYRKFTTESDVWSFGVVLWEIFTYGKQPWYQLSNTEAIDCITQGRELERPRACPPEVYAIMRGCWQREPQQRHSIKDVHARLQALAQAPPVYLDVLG
T8 sequence (P07947 whole entry): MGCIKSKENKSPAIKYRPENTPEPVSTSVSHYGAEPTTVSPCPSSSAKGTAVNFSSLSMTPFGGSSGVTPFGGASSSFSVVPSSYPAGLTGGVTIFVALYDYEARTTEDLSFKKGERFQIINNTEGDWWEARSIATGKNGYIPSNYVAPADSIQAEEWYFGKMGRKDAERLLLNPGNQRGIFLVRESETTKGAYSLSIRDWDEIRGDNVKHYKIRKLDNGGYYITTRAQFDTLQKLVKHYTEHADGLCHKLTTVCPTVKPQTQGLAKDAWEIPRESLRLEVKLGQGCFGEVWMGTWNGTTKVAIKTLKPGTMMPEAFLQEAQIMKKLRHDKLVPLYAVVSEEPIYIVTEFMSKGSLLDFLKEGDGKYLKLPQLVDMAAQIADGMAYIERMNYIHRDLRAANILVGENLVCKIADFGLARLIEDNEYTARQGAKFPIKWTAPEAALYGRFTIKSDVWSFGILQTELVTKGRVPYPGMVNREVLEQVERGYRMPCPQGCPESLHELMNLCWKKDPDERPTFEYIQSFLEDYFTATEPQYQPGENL

The term inhibition denotes the drop in the measured response relative to a control, in per cent. Consider `CCOC(=O)Nc1cccc2c(Oc3ncccc3-c3ccnc(N[C@H]4CCCNC4)n3)c(C)ccc12` [G-1749], for which the inhibition at 1 µM in experiment [1] was 3.5%; in [2], -8.5%; in experiment [3], 7%; in experiment [4], 5.5%; in [5], 33.5%; in experiment [6], 2%. Besides, the figures for the inhibition at 1 µM in experiment [7], in experiment [8] and in [9] were 26%, -4% and 7.5%, respectively.

Turning to `CC#CC(=O)Nc1cccc2c(Oc3ncccc3-c3ccnc(N[C@H]4CCCNC4)n3)c(C)ccc12` [G-7658], the inhibition at 1 µM is 4% in experiment [1]; -2.5% in [2]; 5% in experiment [3]; 5.5% in [4]; 31% in experiment [5]; 1% in experiment [6]. Moreover, the inhibition at 1 µM in experiment [7] amounted to 12.5%; in [8] it was 10.5%; in experiment [9] it was 8%.

Take `O=c1cc(-c2n[nH]c3ncc(-c4c(F)cccc4F)cc23)nc(N2CCC(O)CC2)[nH]1` [G-9807]: the inhibition at 1 µM is 100% in experiment [1]; 98.1% in experiment [2]; 85.7% in experiment [3]; 66.7% in experiment [4]; 97.5% in [5]; 92.2% in [6]. The inhibition at 1 µM worked out at 95.9% in experiment [7], 91.2% in experiment [8] and 52.4% in experiment [9].
